# Data reported in patent EP4509511A1, “SUBSTITUTED SPIRO-ISOXAZOLINYL LACTAMS, SALTS THEREOF AND THEIR USE AS HERBICIDALLY ACTIVE SUBSTANCES” (Bayer Aktiengesellschaft, priority 2023, dated 2025).
# Columns and labels:
# ABUTH [1] = test: Herbicidal pre-emergence action - Part I; type: in vivo, Abutilon theophrasti; details: visual grading after ca. 3 weeks vs untreated controls
# Source text: (§1) Seeds of mono- and dicotyledonous weed plants were sown in plastic pots (double sowings with one species of mono- and one species of dicotyledonous weed plants per pot), in sandy loam, and covered with soil. The compounds according to the invention, formulated in the form of wettable powders (WP) or as emulsifiable concentrates (EC), were applied to the surface of the covering soil as aqueous suspension or emulsion, with the addition of 0.5% of an additive, at an application rate of 600 1 of water per hectare (converted). Following treatment, the pots were placed in a greenhouse and kept under optimum growth conditions for the test plants. The visual grading of the damage to the test plants was carried out after ca. 3 weeks in comparison to untreated controls (herbicidaleffectinpercent(%):100%effect=plantshavediedoff,0%effect=ascontrolplants). [formula]
# (§2) Tables A1 to A12, below, show the effects of selected compounds of the general formula (I) according to table 1 on various harmful plants and an application rate corresponding to 1280 g/ha or below obtained by the experimental procedure mentioned above. Table A1: pre-emergence activity at 1280g/ha against ABUTH in %
# ECHCG [2] = test: Herbicidal pre-emergence action - Part I; type: in vivo, Echinochloa crus-galli; details: 1280 g/ha, visual grading after ca. 3 weeks vs untreated controls
# Source text: as §1, §2
# MATIN [3] = test: Herbicidal pre-emergence action - Part I; type: in vivo, Matricaria inodora; details: visual grading after ca. 3 weeks vs untreated controls
# Source text: as §1, §2
# SETVI = test: Herbicidal pre-emergence action - Part I; type: in vivo, Setaria viridis; details: 1280 g/ha, visual grading after ca. 3 weeks vs untreated controls
# Source text: as §1, §2
# STEME [4] = test: Herbicidal pre-emergence action - Part I; type: in vivo, Stellaria media; details: visual grading after ca. 3 weeks vs untreated controls
# Source text: as §1, §2
# POAAN [5] = test: Herbicidal pre-emergence action - Part I; type: in vivo, Poa annua; details: visual grading after ca. 3 weeks vs untreated controls
# Source text: as §1, §2
# AMARE [6] = test: Herbicidal pre-emergence action - Part I; type: in vivo, Amaranthus retroflexus; details: visual grading after ca. 3 weeks vs untreated controls
# Source text: as §1, §2
# KCHSC [7] = test: Herbicidal pre-emergence action - Part I; type: in vivo, Kochia scoparia; details: Table A10a, 1280 g/ha, visual grading after ca. 3 weeks vs untreated controls
# Source text: as §1, §2
# DIGSA = test: Herbicidal pre-emergence action - Part I; type: in vivo, Digitaria sanguinalis; details: visual grading after ca. 3 weeks vs untreated controls
# Source text: as §1, §2
# ABUTH [8] = test: Herbicidal post-emergence action - Part I; type: in vivo, Abutilon theophrasti; details: 320 g/ha, one-leaf stage, rated visually after about 3 weeks vs untreated controls
# Procedure: (§3) Seeds of mono- and dicotyledonous weed plants were placed in plastic pots in sandy loam soil (doubly sown with in each case one species of mono- or dicotyledonous weed plants per pot), covered with soil and cultivated in a greenhouse under controlled growth conditions. 2 to 3 weeks after sowing, the test plants were treated at the one-leaf stage. The compounds of the invention, formulated in the form of wettable powders (WP) or as emulsion concentrates (EC), were applied onto the green parts of the plants as aqueous suspension or emulsion with addition of 0.5% additive at a water application rate of 600 liters per hectare (converted). After the test plants had been kept in the greenhouse under optimum growth conditions for about 3 weeks, the activity of the preparations was rated visually in comparison to untreated controls. For example, 100% activity = the plants have died, 0% activity = like control plants. Tables B1 to B12, below, show the effects of selected compounds of the general formula (I) according to table 1 on various harmful plants and an application rate corresponding to 1280 g/ha or below obtained by the experimental procedure mentioned above. Table B1a: post-emergence activity at 1280g/ha against ABUTH in %
# ECHCG [9] = test: Herbicidal post-emergence action - Part I; type: in vivo, Echinochloa crus-galli; details: one-leaf stage, rated visually after about 3 weeks vs untreated controls
# Procedure: as §3
# MATIN [10] = test: Herbicidal post-emergence action - Part I; type: in vivo, Matricaria inodora; details: one-leaf stage, rated visually after about 3 weeks vs untreated controls
# Procedure: as §3
# STEME [11] = test: Herbicidal post-emergence action - Part I; type: in vivo, Stellaria media; details: one-leaf stage, rated visually after about 3 weeks vs untreated controls
# Procedure: as §3
# POAAN [12] = test: Herbicidal post-emergence action - Part I; type: in vivo, Poa annua; details: one-leaf stage, rated visually after about 3 weeks vs untreated controls
# Procedure: as §3
# AMARE [13] = test: Herbicidal post-emergence action - Part I; type: in vivo, Amaranthus retroflexus; details: one-leaf stage, rated visually after about 3 weeks vs untreated controls
# Procedure: as §3
# KCHSC [14] = test: Herbicidal post-emergence action - Part I; type: in vivo, Kochia scoparia; details: 1280 g/ha, one-leaf stage, rated visually after about 3 weeks vs untreated controls
# Procedure: as §3
# VERPE [15] = test: Herbicidal post-emergence action - Part I; type: in vivo, Veronica persica; details: one-leaf stage, rated visually after about 3 weeks vs untreated controls
# Procedure: as §3
# ABUTH [16] = test: Herbicidal post-emergence action - Part II; type: in vivo, Abutilon theophrasti; details: 20 g/ha; Table E1b
# In short: (§4)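 Post-emergence greenhouse test: weeds and crops in sandy loam sprayed at single-leaf stage, 2–3 weeks after sowing, with WP or EC formulations in water plus 0.5% additive at 600 l water/ha. Rates 320 g/ha or below. Visual rating after ca. 3 weeks versus untreated controls, % effect (100% = plants dead).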
# AMARE [17] = test: Herbicidal post-emergence action - Part II; type: in vivo, Amaranthus retroflexus
# In short: as §4
# PHBPU = test: Herbicidal post-emergence action - Part II; type: in vivo, Pharbitis purpurea
# In short: as §4
# POLCO = test: Herbicidal post-emergence action - Part II; type: in vivo, Polygonum convolvulus; details: 20 g/ha; Table E6
# Source text: (§5) Seeds of mono- and dicotyledonous weed plants and crop plants were sown, in plastic or organic planting pots, in sandy loam, covered with soil and grown in a greenhouse under controlled growth conditions. 2 to 3 weeks after sowing, the test plants were sprayed in the single-leaf stage. The compounds according to the invention, formulated in form of wettable powders (WP) or as emulsifiable concentrates (EC), were sprayed onto the green plant parts as aqueous suspension or emulsion, with the addition of 0.5% of an additive, at an application rate of 600 1 of water/ha (converted). The test plants were placed in the greenhouse for ca. 3 weeks under optimum growth conditions, and then the effect of the preparations was assessed visually in comparison with untreated controls (herbicidal effect in percent (%): 100% effect = plants have died off, 0% effect = as control plants). Tables E1 to E10 below show the effects of selected compounds of the general formula (I) according to table 1 on various harmful plants and an application rate corresponding to 320 g/ha or below obtained by the experimental procedure mentioned above. Table E1a: post-emergence activity at 5g/ha against ABUTH in %
# VERPE [18] = test: Herbicidal post-emergence action - Part II; type: in vivo, Veronica persica; details: 20 g/ha; Table E8b
# In short: as §4
# VIOTR = test: Herbicidal post-emergence action - Part II; type: in vivo, Viola tricolor
# In short: as §4
# ZEAMX = test: Post-emergence effects on crop plants; type: in vivo, Zea mays; details: crop plant
# In short: (§6)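 Crop plants were grown in sandy loam in the greenhouse and sprayed at the single-leaf stage, 2–3 weeks after sowing, with WP or EC formulations plus 0.5% additive in 600 l water/ha, at rates of 320 g/ha or below. Injury was scored visually about 3 weeks later as % effect versus untreated controls (100% = plants dead).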
# TRZAS = test: Post-emergence effects on crop plants; type: in vivo, Triticum aestivum; details: crop plant
# In short: as §6
# BRSNW = test: Post-emergence effects on crop plants; type: in vivo, Brassica napus; details: 5 g/ha; Table F5a; crop plant
# Source text: as §5, with “F1” for “E1”, “F5” for “E10”, “crop” for “harmful”, “[…]:” for “E1a:”, “ZEAMX” for “ABUTH”
compound,measurement,setting,value
N#Cc1ncccc1C1=NOC2(CCN(Cc3cccc(F)c3F)C2=O)C1 (racemic) [Compound I-41],pre-emergence activity at 1280g/ha against ABUTH in %,ABUTH [1],100%
same,pre-emergence activity at 1280g/ha against ECHCG in %,ECHCG [2],100%
same,pre-emergence activity at 320g/ha against MATIN in %,MATIN [3]; 320 g/ha,90%
same,pre-emergence activity at 1280g/ha against MATIN in %,MATIN [3]; 1280 g/ha,100%
same,pre-emergence activity at 1280g/ha and against SETVI in %,SETVI,100%
same,pre-emergence activity at 320g/ha against STEME in %,STEME [4]; 320 g/ha,90%
same,pre-emergence activity at 1280g/ha against STEME in %,STEME [4]; 1280 g/ha,90%
same,pre-emergence activity at 320g/ha and against POAAN in %,POAAN [5]; 320 g/ha,100%
same,pre-emergence activity at 1280g/ha and against POAAN in %,POAAN [5]; 1280 g/ha,100%
same,pre-emergence activity at 320g/ha against AMARE in %,AMARE [6]; 320 g/ha,90%
same,pre-emergence activity at 1280g/ha against AMARE in %,AMARE [6]; 1280 g/ha,90%
same,pre-emergence activity at 1280g/ha against KCHSC in %,KCHSC [7],90%
same,pre-emergence activity at 320g/ha against DIGSA in %,DIGSA; 320 g/ha,90%
same,pre-emergence activity at 1280g/ha against DIGSA in %,DIGSA; 1280 g/ha,100%
same,post-emergence activity at 320g/ha against ABUTH in %,ABUTH [8],100%
same,post-emergence activity at 320g/ha against ECHCG in %,ECHCG [9]; 320 g/ha,90%
same,post-emergence activity at 1280g/ha against ECHCG in %,ECHCG [9]; 1280 g/ha,100%
same,post-emergence activity at 320g/ha against MATIN in %,MATIN [10]; 320 g/ha,100%
same,post-emergence activity at 1280g/ha against MATIN in %,MATIN [10]; 1280 g/ha,100%
same,post-emergence activity at 80g/ha against STEME in %,STEME [11]; 80 g/ha,100%
same,post-emergence activity at 320g/ha against STEME in %,STEME [11]; 320 g/ha,100%
same,post-emergence activity at 1280g/ha against STEME in %,STEME [11]; 1280 g/ha,100%
same,post-emergence activity at 80g/ha against POAAN in %,POAAN [12]; 80 g/ha,90%
same,post-emergence activity at 320g/ha against POAAN in %,POAAN [12]; 320 g/ha,90%
same,post-emergence activity at 1280g/ha against POAAN in %,POAAN [12]; 1280 g/ha,90%
same,post-emergence activity at 80g/ha against AMARE in %,AMARE [13]; 80 g/ha,90%
same,post-emergence activity at 320g/ha against AMARE in %,AMARE [13]; 320 g/ha,90%
same,post-emergence activity at 1280g/ha against AMARE in %,AMARE [13]; 1280 g/ha,100%
same,post-emergence activity at 1280g/ha against KCHSC in %,KCHSC [14],90%
same,post-emergence activity at 320g/ha against VERPE in %,VERPE [15]; 320 g/ha,90%
same,post-emergence activity at 1280g/ha against VERPE in %,VERPE [15]; 1280 g/ha,100%
Cc1ccsc1C1=NOC2(CCN(Cc3sc(Cl)nc3C)C2=O)C1 (racemic) [Compound I-48],pre-emergence activity at 1280g/ha against ABUTH in %,ABUTH [1],100%
COC(=O)CN1CCC2(CC(c3cc(-n4c(=O)cc(C(F)(F)F)n(C)c4=O)c(F)cc3Cl)=NO2)C1=O (racemic) [Compound I-58],post-emergence activity against ABUTH,ABUTH [16],90%
same,post-emergence activity against AMARE,"AMARE [17]; 5 g/ha, Table E2a",80%
same,post-emergence activity against AMARE,"AMARE [17]; 20 g/ha, Table E2b",100%
same,post-emergence activity against PHBPU,"PHBPU; 5 g/ha, Table E5a",90%
same,post-emergence activity against PHBPU,"PHBPU; 20 g/ha, Table E5b",100%
same,post-emergence activity against POLCO,POLCO,100%
same,post-emergence activity against VERPE,VERPE [18],100%
same,post-emergence activity against VIOTR,"VIOTR; 5 g/ha, Table E9a",80%
same,post-emergence activity against VIOTR,"VIOTR; 20 g/ha, Table E9b",100%
same,post-emergence activity against ZEAMX,"ZEAMX; 5 g/ha, Table F1a",10%
same,post-emergence activity against ZEAMX,"ZEAMX; 20 g/ha, Table F1b",20%
same,post-emergence activity against TRZAS,"TRZAS; 5 g/ha, Table F2a",10%
same,post-emergence activity against TRZAS,"TRZAS; 20 g/ha, Table F2b",20%
same,post-emergence activity against BRSNW,BRSNW,0%
